What all share (format): cell-based
One assay relates to SW480 colon cancer cells. Description: Cell viability assay (CellTiter-Blue) in SW480 colon cancer cells. Particulars: Homo sapiens, 96 h, four days; for EC50: CellTiter-Blue; for inhibition at 10 µM: given where EC50 >10 μM, read-out: percent inhibition at 10 μM. The procedure, abridged: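 4-day exposure, 37 °C/5% CO2; ~2×10^3 SW480 cells/well; 8-pt 1:3 curve, 10–0.0045 μM, duplicates vs DMSO controls. Resazurin→resorufin fluorescence readout, ~3 h. EC50 by nonlinear fit; if >10 μM, % inhibition at 10 μM reported.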
A general note: Resazurin is reduced to fluorescent resorufin, in cell work by metabolically active cells.

Assay [1] concerns Primary human fibroblasts derived from IPF patients (LL29 cells) treated with TGF-β1. Description: Inhibition of the fibrotic process: αSMA staining in TGF-β1-treated primary human fibroblasts from IPF patients (LL29 cells). To be noted: Fibroblast, 96 h; for EC50: % αSMA-positive LL29 cells, TGF-β1 20 ng/mL, 4 days; for inhibition at 10 µM: given where EC50 >10 μM, αSMA, LL29 cells, TGF-β1, 4 days, read-out: percent inhibition at 10 μM. The method in brief:
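LL29 IPF-patient fibroblasts in 1% FBS stimulated with TGF-β1 (20 ng/mL) and compound (10 μM–1.87 nM, 0.1% DMSO) for 4 days at 37 °C. SYTOX-positive cells excluded; % αSMA-positive cells imaged, normalized to TGF-β1/DMSO wells; EC50 by nonlinear regression, else % inhibition at 10 μM.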

Another assay concerns IL-6. Nature of the assay: Inhibition of IL-6 in LPS-stimulated THP-1 human monocyte cells (HTRF). Particulars: for EC50: IL-6 inhibition, LPS-stimulated THP-1 cells, HTRF. The procedure, abridged:
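THP-1 cells serum-reduced (1% FBS, 24 h), then 5000 cells/well preincubated 2 h with compound (10-point 1:3 series from 10 μM, 0.1% DMSO) before 500 ng/mL LPS for 22 h at 37 °C. Secreted IL-6 quantified by HTRF 665/620 ratio; DMSO-normalised duplicates fitted to four-parameter EC50; above 10 μM, % inhibition at 10 μM given.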
Background: Time-resolved FRET reads energy transfer from a long-lived donor to a nearby acceptor.

Where only a bound is given, the exact number is not on record here.

Take `CN(C)Cc1cncc(-c2ccc3[nH]nc(-c4cc5c(-c6ccncc6)cccc5[nH]4)c3c2)c1` [Compound 125, N,N-dimethyl-1-(5-(3-(4-(Pyridin-4-yl)-1H-indol-2-yl)-1H-indazol-5-yl)pyridin-3-yl)methanamine]: the values for the concentration giving a half-maximal response (EC50) (in the assay with SW480 colon cancer cells; in assay [1]; with IL-6) were 0.412 µM, 1.25 µM and 0.15 µM, respectively.

For the molecule `CN1CCN(c2cccc3[nH]c(-c4n[nH]c5ccc(-c6cncc(CN7CCCCC7)c6)cc45)cc23)CC1` [Compound 239, 3-(4-(4-Methylpiperazin-1-yl)-1H-indol-2-yl)-5-(5-(piperidin-1-ylmethyl)pyridin-3-yl)-1H-indazole], the inhibition at 10 µM in the assay with SW480 colon cancer cells is 51.7%; in assay [1], 21.1%. The values for the concentration for a half-maximal effect (EC50) (with SW480 colon cancer cells; in assay [1]; with IL-6) were above 10 µM, above 10 µM and 1.15 µM, respectively.

Turning to `CC(C)C(=O)Nc1cncc(-c2ccc3[nH]nc(-c4cc5c(N6CCN(C)CC6)cccc5[nH]4)c3c2)c1` [Compound 233, N-(5-(3-(4-(4-Methylpiperazin-1-yl)-1H-indol-2-yl)-1H-indazol-5-yl)pyridin-3-yl)isobutyramide], the EC50 (as a rule, the midpoint of the concentration-response curve) with SW480 colon cancer cells stood at 3.16 µM; in assay [1] it was 1.31 µM; with IL-6, 0.589 µM.

Regarding `c1ccc(-c2cccc3[nH]c(-c4n[nH]c5ccc(-c6cncc(CN7CCCC7)c6)cc45)cc23)nc1` [Compound 154, 3-(4-(Pyridin-2-yl)-1H-indol-2-yl)-5-(5-(pyrrolidin-1-ylmethyl)pyridin-3-yl)-1H-indazole], the 50% effective concentration (EC50) in the assay on SW480 colon cancer cells came to 2.79 µM; in assay [1], 0.222 µM; in the assay with IL-6 it was 0.75 µM.

Consider `O=C(Nc1cncc(-c2ccc3[nH]nc(-c4cc5c(-c6ccncc6)cccc5[nH]4)c3c2)c1)C1CCCCC1` [Compound 135, N-(5-(3-(4-(Pyridin-4-yl)-1H-indol-2-yl)-1H-indazol-5-yl)pyridin-3-yl) cyclohexanecarboxamide], for which the results for the inhibition at 10 µM (in the assay on SW480 colon cancer cells; in assay [1]) were 12.2% and 10.7%, respectively. Further, the EC50 in the assay on SW480 colon cancer cells was above 10 µM; in assay [1] it was above 10 µM; in the assay with IL-6 it was 9.9 µM.

For the molecule `CCCCC(=O)Nc1cncc(-c2ccc3[nH]nc(-c4cc5c(-c6ccccn6)cccc5[nH]4)c3c2)c1` [Compound 159, N-(5-(3-(4-(Pyridin-2-yl)-1H-indol-2-yl)-1H-indazol-5-yl)pyridin-3-yl) pentanamide], the inhibition at 10 µM was determined as 22.3% in the assay with SW480 colon cancer cells; 45.6% in assay [1]; 39.3% with IL-6 (THP-1, printed beside >10 μM EC50, top concentration 10 μM, meaning not given, read-out: percentage in parentheses after EC50 >10). In addition, the EC50 (in the assay on SW480 colon cancer cells; in assay [1]; in the assay on IL-6) was above 10 µM each time.

Take `O=C(Nc1cncc(-c2ccc3[nH]nc(-c4cc5ncccc5[nH]4)c3c2)c1)c1ccccc1` [Compound 515, N-(5-(3-(1H-Pyrrolo[3,2-b]pyridin-2-yl)-1H-indazol-5-yl)pyridin-3-yl) benzamide]: the concentration giving a half-maximal response (EC50) in the assay with SW480 colon cancer cells is 1.09 µM; in assay [1] it was above 10 µM; with IL-6, 0.27 µM. The inhibition at 10 µM in assay [1] amounted to 0%.

`c1csc(-c2cccc3[nH]c(-c4n[nH]c5ccc(-c6ccncc6)cc45)cc23)c1` [Compound 354, 5-(pyridin-4-yl)-3-(4-(thiophen-2-yl)-1H-indol-2-yl)-1H-indazole]: the EC50 with SW480 colon cancer cells is 8.93 µM; in assay [1] it was above 10 µM; in the assay with IL-6, 0.15 µM. For the same molecule, the inhibition at 10 µM in assay [1] is 0%.

Turning to `CS(=O)(=O)NCc1cc(F)cc(-c2cccc3[nH]c(-c4n[nH]c5ccc(-c6cncnc6)cc45)cc23)c1` [Compound 503, N-(3-Fluoro-5-(2-(5-(pyrimidin-5-yl)-1H-indazol-3-yl)-1H-indol-4-yl)benzyl) methanesulfonamide], the EC50 was 3.17 µM in the assay with SW480 colon cancer cells, 0.311 µM in assay [1] and 0.91 µM in the assay with IL-6.

The record behind these values is patent US10604512B2, “3-(1H-indol-2-yl)-1H-indazoles and therapeutic uses thereof” (Samumed, LLC, priority 2015, dated 2020).
